Values of other authors as cited in patent US20160339010A1, “Treatment of Partly Controlled or Uncontrolled Severe Asthma” (TAKEDA GMBH, priority 2014, published 2016).

Experiments:
[1] = test system: patients with high-dose corticosteroid dependent asthma; conditions: cited from earlier work
asthma patients = conditions: cited from earlier work
[2] = test system: patients with severe and uncontrolled bronchial asthma; conditions: on top of Fluticasone 500 mcg/Salmeterol 50 mcg twice daily; cited from earlier work

For `CC(C)(O)c1ccccc1CC[C@@H](SCC1(CC(=O)[O-])CC1)c1cccc(/C=C/c2ccc3ccc(Cl)cc3n2)c1.[Na+]` [montelukast, [R-(E)]-1-[[[1-[3-[2-(7-chloro-2-quinolinyl)ethenyl]phenyl]-3-[2-(1-hydroxy-1-methylethyl)phenyl]propyl]thio]methyl]cyclopropaneacetic acid], which sputum eosinophilia [1] is on record?
Its sputum eosinophilia is “failure of montelukast to reduce”.

With `Cn1c(=O)c2[nH]cnc2n(C)c1=O` [theophylline] as the compound, how does the “benefit of add-on therapy to inhaled glucocorticosteroids” value (asthma patients) read?
The value was “no benefit”.

What does the source list for `O=C(Nc1c(Cl)cncc1Cl)c1ccc(OC(F)F)c(OCC2CC2)c1` [Roflumilast]?
FEV1 [2]: significantly improved; Forced vital capacity (FVC) [2]: significantly improved; accumulation of neutrophils in induced sputum [2]: reduced; morning PEF [2]: significantly improved
